Laboratory results from patent US6458337B1, “Diagnostic imaging contrast agent with improved in serum relaxivity” (Dibra S.p.A, priority 1996, dated 2002).

Columns and labels:
[1] = Relaxivity (r1, r2) in saline; type: physicochemical; conditions: NaCl 0.15 M in water, pH 7.3, 20 MHz, 39° C.
From the text: (§1) Relaxivity values of the contrast agent of the present invention have been tested either in saline or in human serum obtained by Seronorm™ Human, freeze-dried human serum produced by Nycomed Pharma AS, Oslo, Norway. Serum obtained from said Seronorm™ is substantially equivalent to the fresh one, so its use in the relaxivity determination grants a good picture of the “in vivo” behaviour and, further, an excellent reproducibility of this test.

[2] = Relaxivity (r1, r2) in reconstituted human serum (Seronorm™ Human); type: physicochemical; conditions: Between 0 and 1 mM (Seronorm™ Human), 20 MHz, 39° C.
From the text: as §1
The compounds object of the present invention are characterised by very high r1 and r2 relaxivity values. When measured in Seronorm™ Human at 20 MHz, at a temperature of 39° C., and at a concentration comprised from 0 to 1 mM, compounds of the present invention usually have r1 relaxivity equal to or, preferably, higher than 15^s−1mM^−1, thus confirming the formation of unexpectedly strong non-covalent bonds with serum proteins. […] Last, significative amounts of the preferred compounds of the invention have also been found in the urines, showing that, thanks to their binding to HSA, the same are very promising as blood pool diagnostic agents.

Relaxivity Saline r1 [1]: 5.70 mM⁻¹ s⁻¹
Relaxivity Serum r1 [2]: 20.1 mM⁻¹ s⁻¹
Structure (SMILES): O=C(O)CN(CCN(CCN(CC(=O)O)CC(=O)O)C(CCCCNC(=O)C(c1ccccc1)c1ccccc1)C(=O)O)CC(=O)O (centres unmarked)
